These results are taken from US10883992B2, “Universal kinase substrates and methods of use thereof” (Regents of the University of Minnesota, priority 2018, dated 2021).

Common to all, as to assay type: biochemical
The test system of one experiment is panel of 15 PTKs. The experiment can be described thus: Universal kinase substrate screen of the pilot library, [γ-33P]ATP incorporation. Particulars: biotinylated peptides 10 μM; for phosphorylation by the panel of PTKs: 50 μM ATP, 30° C., 30 min, 15 PTKs; for average phosphorylation across the kinase panel: averaged over 15 PTKs (FIG. 1B). As to the method: This pilot library was then subjected to an initial screen to test their phosphorylation by a panel of 15 PTKs that included 12 non-receptor TKs (representing all 10 NRTK families) and 3 receptor TKs (representing 3 RTK families). Pilot peptides were assayed alongside several previously reported substrates that were designed to be specific to individual kinases. Conversion to product was monitored via incorporation of phosphate from [γ-^33P] radiolabeled adenosine triphosphate (ATP). These intensities were normalized to background and visualized as a heat map in FIG. 1. […] By contrast, as previously reported, peptides that had been designed to specifically target individual kinases had more restricted reactivity.
(§1) Biotinylated peptides (10 μM final concentration) were arrayed in a 384-well plate in 18 μL reaction buffer (50 mM HEPES, pH 7.5, 150 mM NaCl, 10 mM MgCl2, 1 mM DTT, 0.1% v/v Tween-20). Reactions were initiated by adding […] kinase (to 3-9 ng/μL) and [γ-^33P] ATP (to 50 μM, 0.025 μCi/μL) in reaction buffer. Plates were sealed and incubated at 30° C. for 30 min, and then 2 μL aliquots were transferred to streptavidin membrane (Promega SAM2 biotin capture membrane) using a pin-tool. […] Incorporation of radiolabel was quantified by phosphor imaging using QuantityOne software (Bio-Rad). After background correction, data were normalized such that the peptide with the greatest signal was 100%. Normalized data from at least two separate experiments were averaged and converted to heatmaps using Excel (Microsoft).

A further experiment concerns the target T1, EGFR (His6-EGFR 672-998) (Homo sapiens, UniProt P00533).
T1 construct: His6-EGFR^672-998; His6 (N); made in house; host or cells: Sf9 insect cells
The experiment can be described thus: Michaelis-Menten kinetic analysis of substrate peptides, [γ-33P]ATP radiolabel incorporation. Particulars: for kcat: lower limit extrapolated from kcat/Km.
From the text: (§2) The mammalian expression vector to produce the intracellular portion of human FLT3 fused to GST (GST-FLT3^564-993) was generated by PCR amplifying the encoding sequence and subcloning into the BamHI and NotI sites of pEBG-2T. Mammalian expression vectors to produce BTK, SRC and SYK as GST fusion proteins were previously described. GST-tagged kinases were expressed in HEK293T cells and purified by affinity chromatography using glutathione Sepharose 4B as described (Deng, et al., Journal of Proteome Research 2014, 13, 4339). His6-EGFR^672-998 (“His6” disclosed SEQ ID NO: 25) and His6-ALK^1090-1416 (“His6” disclosed SEQ ID NO: 25) were expressed and purified from Sf9 insect cells as described (Park, et al., Biochemical Journal 2012, 448, 417; Bresler, et al., Science Translational Medicine 2011, 3, 108ra114). Human ABL was purchased from Life Technologies.
as §1
(§3) Final kinase concentrations were as follows: 0.3 ng/μL for ABL, BTK, SRC and SYK; 1.5 ng/μL for FLT3; 2.7 ng/μL for ALK and EGFR. At various incubation times (10, 20 and 30 min), 2 μL aliquots were transferred using a pin tool to P81 phosphocellulose paper (Reaction Biology), which was washed three times in 75 mM H3PO4, briefly washed in acetone and allowed to dry before exposing to a phosphor screen. Incorporation of radiolabel into peptides was quantified as above. After background correction, initial rates of reaction were determined by linear regression and fit to the Michaelis-Menten equation using Prism (GraphPad). […] Reported kinetic parameters are the average of three separate experiments except for FLT3 (two experiments).

A further experiment concerns the target T2, Syk (Homo sapiens, UniProt P43405).
T2 construct: GST; made in house; host or cells: HEK293T cells
The description is as above.
From the text: as §2, §1, §3

For a further experiment, the target named is T3, BTK (Homo sapiens, UniProt Q06187).
T3 construct: GST; made in house; host or cells: HEK293T cells
T3 sequence (Q06187 whole entry, species assumed): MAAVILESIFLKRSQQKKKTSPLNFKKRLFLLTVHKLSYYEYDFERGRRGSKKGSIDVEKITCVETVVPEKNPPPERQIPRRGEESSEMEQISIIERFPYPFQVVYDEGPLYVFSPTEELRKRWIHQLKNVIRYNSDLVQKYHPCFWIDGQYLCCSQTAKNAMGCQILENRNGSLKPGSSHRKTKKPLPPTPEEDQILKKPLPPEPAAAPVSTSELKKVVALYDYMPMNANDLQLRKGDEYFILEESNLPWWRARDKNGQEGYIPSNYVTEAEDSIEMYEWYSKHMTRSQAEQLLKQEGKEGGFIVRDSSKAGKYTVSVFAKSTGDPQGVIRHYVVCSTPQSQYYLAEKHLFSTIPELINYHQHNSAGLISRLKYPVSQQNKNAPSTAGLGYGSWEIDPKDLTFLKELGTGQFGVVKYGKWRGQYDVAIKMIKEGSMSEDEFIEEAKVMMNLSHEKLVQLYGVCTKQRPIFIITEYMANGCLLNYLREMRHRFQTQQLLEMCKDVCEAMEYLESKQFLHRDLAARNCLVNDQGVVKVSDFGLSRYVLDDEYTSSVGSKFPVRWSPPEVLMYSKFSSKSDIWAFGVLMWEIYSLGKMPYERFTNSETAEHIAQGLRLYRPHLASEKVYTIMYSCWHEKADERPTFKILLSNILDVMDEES
Described as above. Particulars: for kcat: mean ± sem of fits.
From the text: as §2, §1, §3

The target in a further experiment is T4, ALK (His6-ALK 1090-1416) (Homo sapiens, UniProt Q9UM73).
T4 construct: His6-ALK^1090-1416; His6 (N); made in house; host or cells: Sf9 insect cells
T4 sequence (Q9UM73 1090-1416): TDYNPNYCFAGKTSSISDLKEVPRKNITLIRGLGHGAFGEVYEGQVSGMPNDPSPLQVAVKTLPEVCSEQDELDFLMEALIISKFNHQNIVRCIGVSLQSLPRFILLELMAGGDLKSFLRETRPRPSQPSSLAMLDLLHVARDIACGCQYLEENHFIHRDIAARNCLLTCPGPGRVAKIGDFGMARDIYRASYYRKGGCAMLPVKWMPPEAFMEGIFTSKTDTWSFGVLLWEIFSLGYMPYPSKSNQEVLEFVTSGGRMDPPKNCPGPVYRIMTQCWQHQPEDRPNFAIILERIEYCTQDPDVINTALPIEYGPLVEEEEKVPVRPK
The description is as above. Particulars: for kcat: lower limit extrapolated from kcat/Km.
From the text: as §2, §1, §3

The target in the next experiment is T5, FLT3 (GST-FLT3 564-993) (Homo sapiens, UniProt P36888).
T5 construct: human FLT3 fused to GST (GST-FLT3^564-993); GST (N); made in house; host or cells: HEK293T cells
T5 sequence (P36888 564-993): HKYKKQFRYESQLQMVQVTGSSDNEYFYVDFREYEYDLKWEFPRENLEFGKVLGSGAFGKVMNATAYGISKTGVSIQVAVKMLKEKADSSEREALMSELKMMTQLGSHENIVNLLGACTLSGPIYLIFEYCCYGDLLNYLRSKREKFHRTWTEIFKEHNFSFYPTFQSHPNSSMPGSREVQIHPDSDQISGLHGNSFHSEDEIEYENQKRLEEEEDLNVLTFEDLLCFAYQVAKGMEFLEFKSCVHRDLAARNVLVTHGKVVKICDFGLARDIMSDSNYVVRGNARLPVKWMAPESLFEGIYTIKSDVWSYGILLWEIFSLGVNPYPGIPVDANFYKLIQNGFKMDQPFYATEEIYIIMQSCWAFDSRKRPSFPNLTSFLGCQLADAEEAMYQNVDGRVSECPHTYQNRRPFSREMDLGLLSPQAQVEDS
Described as above. Particulars: for kcat: mean ± sem of fits.
From the text: as §2, §1, §3

The target in another experiment is T6, Src (Homo sapiens, UniProt P12931).
T6 construct: GST; made in house; host or cells: HEK293T cells
The description is as above. Particulars: for kcat: lower limit extrapolated from kcat/Km.
From the text: as §2, §1, §3

The target in the next experiment is T7, Abl (Homo sapiens, UniProt P00519).
T7 construct: purchased Life Technologies
T7 sequence (P00519 whole entry): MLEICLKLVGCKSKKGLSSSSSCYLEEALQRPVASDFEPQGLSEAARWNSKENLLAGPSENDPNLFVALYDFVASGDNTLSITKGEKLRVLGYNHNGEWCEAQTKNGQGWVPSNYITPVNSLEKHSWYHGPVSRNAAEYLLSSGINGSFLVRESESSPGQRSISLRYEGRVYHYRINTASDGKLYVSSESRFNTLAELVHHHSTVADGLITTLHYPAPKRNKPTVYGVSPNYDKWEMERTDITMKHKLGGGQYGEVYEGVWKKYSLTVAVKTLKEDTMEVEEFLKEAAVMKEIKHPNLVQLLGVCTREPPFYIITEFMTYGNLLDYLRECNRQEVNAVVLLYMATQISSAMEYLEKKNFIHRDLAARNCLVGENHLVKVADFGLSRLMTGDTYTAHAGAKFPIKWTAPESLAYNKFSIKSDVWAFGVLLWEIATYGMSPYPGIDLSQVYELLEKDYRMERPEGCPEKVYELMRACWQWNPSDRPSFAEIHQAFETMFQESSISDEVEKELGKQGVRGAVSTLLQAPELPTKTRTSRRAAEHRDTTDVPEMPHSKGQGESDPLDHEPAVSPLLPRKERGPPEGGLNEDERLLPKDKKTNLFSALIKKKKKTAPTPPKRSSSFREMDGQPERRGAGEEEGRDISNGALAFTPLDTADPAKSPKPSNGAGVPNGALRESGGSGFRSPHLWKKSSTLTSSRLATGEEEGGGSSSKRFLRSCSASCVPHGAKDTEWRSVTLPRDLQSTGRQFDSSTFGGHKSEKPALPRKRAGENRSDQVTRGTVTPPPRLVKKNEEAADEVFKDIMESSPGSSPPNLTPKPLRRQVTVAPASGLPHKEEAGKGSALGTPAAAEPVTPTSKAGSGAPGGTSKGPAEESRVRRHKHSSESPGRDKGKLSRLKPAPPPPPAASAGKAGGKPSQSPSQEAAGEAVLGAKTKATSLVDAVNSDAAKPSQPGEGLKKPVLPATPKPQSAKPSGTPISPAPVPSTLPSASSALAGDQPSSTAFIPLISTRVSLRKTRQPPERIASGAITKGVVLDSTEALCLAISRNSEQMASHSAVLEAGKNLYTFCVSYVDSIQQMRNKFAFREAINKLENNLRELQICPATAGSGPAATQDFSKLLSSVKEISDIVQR
The experiment is described as above.
From the text: as §2, §1, §3

Where [1] appears, read: peptide 2 relative to peptide 5.
[2] abbreviates: lower limit extrapolated from kcat/Km.

“Also recorded” adds a separate entry of the source. Ends that are not written are not given here. Peptide text beside a SMILES is read from it. * marks the point of attachment. Biotin = O=C1N[C@H]2[C@H](CS[C@H]2CCCCC(=O)*)N1

As to `CC[C@H](C)[C@H](NC(=O)[C@@H]1CCCN1C(=O)[C@H](CC(=O)O)NC(=O)[C@@H](N)CCC(=O)O)C(=O)N[C@@H](Cc1ccc(O)cc1)C(=O)N[C@H](C(=O)N[C@H](C(=O)N[C@@H](CC(C)C)C(=O)N[C@@H](CCC(=O)O)C(=O)NCC(=O)NCC(=O)N[C@@H](CCCCNC(=O)CCCC[C@@H]1SC[C@@H]2NC(=O)N[C@@H]21)C(=O)NCC(=O)NCC(N)=O)[C@@H](C)O)C(C)C` [Peptide 2] (H-EDPIYVTLEGGK(Biotin)GG-NH2), in the experiment with panel of 15 PTKs, the “phosphorylation by the panel of PTKs” value is “phosphorylated by every PTK tested”. Also, the “average phosphorylation across the kinase panel” value in the experiment on panel of 15 PTKs was “highest average rate of phosphorylation across the entire panel of kinases; also recorded: highest phosphorylation averaged across the kinase panel”. Also, the turnover number (kcat) was more than 0.005 s⁻¹ on EGFR (His6-EGFR 672-998); 0.061 ± 0.019 s⁻¹ at BTK; more than 0.02 s⁻¹ at ALK (His6-ALK 1090-1416); 0.013 ± 0.004 s⁻¹ on FLT3 (GST-FLT3 564-993); more than 40 s⁻¹ on Src; more than 4 s⁻¹ on Abl (setting [2]). Further, the “2/5 kcat/Km ratio” value was found to be 5.8 ± 0.2 on EGFR (His6-EGFR 672-998) (setting [1]); 1.8 ± 0.2 on Syk (setting [1]); 0.31 ± 0.01 on BTK (setting [1]); 1.23 ± 0.02 at ALK (His6-ALK 1090-1416) (setting [1]); 1.43 ± 0.07 at FLT3 (GST-FLT3 564-993) (setting [1]); 0.52 ± 0.07 at Src (setting [1]). For the same compound, the “2/5 kcat/Km ratio” value on Abl (setting [1]) is listed as 0.13 ± 0.01.

For `CC[C@H](C)[C@H](NC(=O)[C@H](C)NC(=O)[C@H](CCC(=O)O)NC(=O)[C@@H](N)CC(=O)O)C(=O)N[C@@H](Cc1ccc(O)cc1)C(=O)N[C@@H](C)C(=O)N[C@H](C(=O)N[C@H](C(=O)N[C@@H](C)C(=O)NCC(=O)NCC(=O)N[C@@H](CCCCNC(=O)CCCC[C@@H]1SC[C@@H]2NC(=O)N[C@@H]21)C(=O)NCC(=O)NCC(N)=O)C(C)C)[C@@H](C)O` [Peptide 5] (H-DEAIYATVAGGK(Biotin)GG-NH2), the “phosphorylation by the panel of PTKs” value in the experiment on panel of 15 PTKs was “phosphorylated by every PTK tested”. In the experiment with panel of 15 PTKs, the “average phosphorylation across the kinase panel” value was “highest average rate of phosphorylation across the entire panel of kinases; also recorded: highest phosphorylation averaged across the kinase panel”. Besides, the turnover number (kcat) at EGFR (His6-EGFR 672-998) was more than 0.001 s⁻¹; at Syk (setting [2]) it was more than 0.1 s⁻¹; on BTK, 0.26 ± 0.08 s⁻¹; at ALK (His6-ALK 1090-1416) it was more than 0.02 s⁻¹; at FLT3 (GST-FLT3 564-993) it was 0.014 ± 0.004 s⁻¹; at Src it was more than 2 s⁻¹. Besides, at Abl (mean ± sem of fits), the turnover number (kcat) was determined as 16.5 ± 3.5 s⁻¹.

For the compound “DEPIYDTVEGGKbiotinGG (DEPIYDTVEGGK(Biotin)GG) [Peptide 6]”, the “phosphorylation by the panel of PTKs” value in the experiment on panel of 15 PTKs was “phosphorylated by every PTK tested”.

As usually defined, the kcat is the maximal rate divided by the concentration of active sites.
